In brackets after ≈: the same amount, converted by molar mass. Like-named read-outs stand apart in the source and are kept apart here. Non-standard residues stand in square brackets, D forms with d. Residues, ends and D or L forms follow the SMILES beside them. d1Nal = N[C@H](Cc1cccc2ccccc12)C(=O)O Where only a bound is given, the exact number is not on record here.

The results in this text go back to patent US20050148495A1, “Methods and materials including for treating acne” (priority 2003, published 2005).

The subject of data set [1] is Staphylococcus aureus. Conditions: for MBC: agent alone.
For data set [2], the system named is E. coli. Conditions: for MBC: agent alone.
For data set [3] the following is noted: 0.3 mg/kg intravenous.
For data set [4] the following is noted: rat, 0.3 mg/kg intravenous.
Procedure: Whole body autoradiography studies measured the concentration of tritium in tissues at several time points following dosing. From these concentrations, area under the concentration vs. time curve (AUC) was calculated as a measure of overall exposure (see Table 25).

Consider `CC1(C)S[C@@H]2[C@H](NC(=O)[C@H](N)c3ccccc3)C(=O)N2[C@H]1C(=O)O` [Ampicillin], for which the “MBC (antibiotic alone)” value came to 8 µg/mL (≈ 22.9 µM) in data set [1] (Staphylococcus aureus 342U-116) and 32 µg/mL (≈ 91.6 µM) in data set [2] (E. coli 4104 LF).
As to `CO/N=C(\C(=O)N[C@@H]1C(=O)N2C(C(=O)O)=C(COC(N)=O)CS[C@H]12)c1ccco1` [Cefuroxime], the “MBC (antibiotic alone)” value in data set [2] (E. coli 4104 LF) amounted to 8 µg/mL (≈ 18.9 µM).
On to `CC(=O)OCC1=C(C(=O)O)N2C(=O)[C@@H](NC(=O)Cc3cccs3)[C@H]2SC1` [Cephalothin], for which, in data set [1] (Staphylococcus aureus 342U-116), the “MBC (antibiotic alone)” value amounted to 1 µg/mL (≈ 2.52 µM).
`CC1COc2c(N3CCN(C)CC3)c(F)cc3c(=O)c(C(=O)O)cn1c23` (stereo not shown) [Ofloxacin]: the entries for the “MBC (antibiotic alone)” value in data set [1] (Staphylococcus aureus 342U-116) and in data set [2] (E. coli 4104 LF) were 1 µg/mL (≈ 2.77 µM) and “≦0.125 μg/mL”, respectively.
In general, clearance refers to the rate of elimination divided by the concentration. On to `CC(C)C[C@@H](NC(=O)[C@H](N)CCCCN)C(=O)N[C@H](Cc1ccccc1)C(=O)N[C@H](CCCNC(=N)N)C(=O)N[C@H](Cc1cccc2ccccc12)C(=O)N[C@H](CCC(N)=O)C(=O)N[C@H](C)C(=O)N[C@H](CCCCN)C(=O)N[C@H](Cc1cccc2ccccc12)C(N)=O` [[^3H]-labeled XMP.629] (H-[dK][dL][dF][dR][d1Nal][dQ][dA][dK][d1Nal]-NH2), for which the “Central compartment volume of distribution” value in data set [3] was roughly 0.12 L/kg. The alpha half-life in data set [3] is roughly 2 min. In data set [3], this molecule yielded a beta half-life of roughly 45 min. For the same molecule, the clearance in data set [3] was roughly 6 mL/min/kg. Besides, the “plasma concentrations by 24 hours following dosing” value in data set [3] is given as “approximately 0.005 μg/mL”. In data set [3], this molecule had a terminal half-life of roughly 480 min. Also, the average half-life result in data set [3] (three compartment model) was “approximately 0.24 hours”. Moreover, the AUC0-tlast is reported as 64.98 μg equivalents * hr/g in data set [4] (Adrenal); 0.24 μg equivalents * hr/g in data set [4] (Blood); 82.65 μg equivalents * hr/g in data set [4] (Bone marrow); 86.07 μg equivalents * hr/g in data set [4] (Cervical lymph node); 1.14 μg equivalents * hr/g in data set [4] (Eye uveal tract); 20.20 μg equivalents * hr/g in data set [4] (Kidney). Besides, the AUC0-tlast worked out at 191.86 μg equivalents * hr/g in data set [4] (Liver); 29.25 μg equivalents * hr/g in data set [4] (Lung); 165.30 μg equivalents * hr/g in data set [4] (Popliteal lymph node); 19.83 μg equivalents * hr/g in data set [4] (Renal medulla high); 60.94 μg equivalents * hr/g in data set [4] (Spleen); 23.38 μg equivalents * hr/g in data set [4] (Thyroid).
Take Neomycin: the “MBC (antibiotic alone)” value in data set [1] (Staphylococcus aureus 342U-116) and in data set [2] (E. coli 4104 LF) was 1 µg/mL in each case.
One may read the MBC as the lowest tested concentration that kills the bacteria rather than only halting them. Read a high MBC as weaker bactericidal potency. Consider Penicillin, for which the MBC in data set [1] (Staphylococcus aureus 076U-550) is less than 0.06 µg/mL; in data set [1] (Staphylococcus aureus 230U-579), greater than 10 µg/mL; in data set [1] (Staphylococcus aureus 314U-148) it was greater than 10 µg/mL; in data set [1] (Staphylococcus aureus 342U-116) it was greater than 10 µg/mL; in data set [1] (Staphylococcus aureus 15031-1857), greater than 10 µg/mL; in data set [2] (E. coli 706U2-1081), greater than 10 µg/mL. The MBC in data set [2] (E. coli 4104 LF) is greater than 10 µg/mL.
